Test results: the supplement of paper PMC11061612

What was measured:
A498 (Kidney Carcinoma) = assay: combination Emax (second highest fraction inhibited in the dose matrix, 72 h); higher = more inhibition; extreme values may be limits of the assay
How it was run: (§1)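 After 24 hours at 37°C and 5% CO2 in 1536-well plates, cells in DMEM/F12 or RPMI plus 10% FBS received two-drug dose matrices for 72 hours. Viability came from CellTiter-Glo 2.0 luminescence and was scaled as inhibition, anchored at 0 by vehicle wells and at 1 by blank wells. Combination Emax is taken as the second-highest inhibition in the matrix, and Bliss excess as the observed combination effect less EA + EB − EA·EB, with EA and EB the single-agent effects.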

[1] = tested on: A549 (Lung Adenocarcinoma); assay: as above
How it was run: as §1

[2] = tested on: CAL-29 (Bladder Carcinoma); assay: as above
How it was run: as §1

8-MG-BA (Glioblastoma) = assay: as above
How it was run: as §1

ARH-77 (Non-Cancerous) = assay: as above
How it was run: as §1

Hs-445 (Non-Cancerous) = assay: as above
How it was run: as §1

[3] = tested on: NCI-H64 (Small Cell Lung Carcinoma); assay: as above
How it was run: as §1

[4] = tested on: CCK-81 (Colorectal Carcinoma); assay: as above
How it was run: as §1

NY (Osteosarcoma) = assay: as above
How it was run: as §1

[5] = tested on: COLO-824 (Breast Carcinoma); assay: as above
How it was run: as §1

[6] = tested on: COR-L311 (Small Cell Lung Carcinoma); assay: as above
How it was run: as §1

[7] = tested on: NCI-H1581 (Non-Small Cell Lung Carcinoma); assay: as above
How it was run: as §1

IGR-37 (Melanoma) = assay: as above
How it was run: as §1

[8] = tested on: ECC10 (Gastric Carcinoma); assay: as above
How it was run: as §1

[9] = tested on: HCC1954 (Breast Carcinoma); assay: as above
How it was run: as §1

[10] = tested on: JSC-1 (B-Cell Non-Hodgkin's Lymphoma); assay: as above
How it was run: as §1

[11] = tested on: SK-MES-1 (Squamous Cell Lung Carcinoma); assay: as above
How it was run: as §1

[12] = tested on: NCI-H1666 (Lung Adenocarcinoma); assay: Bliss excess, mean over the matrix (fraction); higher = more synergy
How it was run: as §1

[13] = tested on: COR-L311 (Small Cell Lung Carcinoma); assay: as above
How it was run: as §1

[14] = tested on: NCI-H1693 (Lung Adenocarcinoma); assay: as above
How it was run: as §1
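Throughout, for Bliss excess, mean over the matrix: after 72 h of two-drug dosing.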

| Structure (SMILES) | combination Emax (A498 (Kidney Carcinoma)) | combination Emax [1] | combination Emax [2] | combination Emax (8-MG-BA (Glioblastoma)) | combination Emax (ARH-77 (Non-Cancerous)) | combination Emax (Hs-445 (Non-Cancerous)) | combination Emax [3] | combination Emax [4] | combination Emax (NY (Osteosarcoma)) | combination Emax [5] | combination Emax [6] | combination Emax [7] | combination Emax (IGR-37 (Melanoma)) | combination Emax [8] | combination Emax [9] | combination Emax [10] | combination Emax [11] | Bliss excess [12] | Bliss excess [13] | Bliss excess [14] |
| --- | --- | --- | --- | --- | --- | --- | --- | --- | --- | --- | --- | --- | --- | --- | --- | --- | --- | --- | --- | --- |
| C=CCn1c(=O)c2cnc(Nc3ccc(N4CCN(C)CC4)cc3)nc2n1-c1cccc(C(C)(C)O)n1 [AZD1775] + O=C(c1cc(Cc2n[nH]c(=O)c3ccccc23)ccc1F)N1CCN(C(=O)C2CC2)CC1 [Olaparib] (first compound max 1 µM, partner max 10 µM) | 0.51 | 0.458 | 0.612 | 0.77 | 0.929 | 0.899 | 0.869 | 0.894 | 0.578 | 0.685 | 0.587 | 0.568 | 0.776 | 0.796 | 0.218 | 0.856 | 0.5 | 0.0278 | -0.0848 | -0.0137 |
| CCN(CCO)CCCOc1ccc2c(Nc3cc(CC(=O)Nc4cccc(F)c4)[nH]n3)ncnc2c1 [AZD2811] + C=CCn1c(=O)c2cnc(Nc3ccc(N4CCN(C)CC4)cc3)nc2n1-c1cccc(C(C)(C)O)n1 [AZD1775] (first compound max 1 µM, partner max 1 µM) | 0.458 | 0.599 | 0.633 | 0.744 | 0.95 | 0.882 | 0.813 | 0.849 | 0.527 | 0.813 | 0.592 | 0.688 | 0.737 | 0.898 | 0.161 | 0.809 | 0.537 | -0.0282 | -0.176 | 0.0099 |
| CCN(CCO)CCCOc1ccc2c(Nc3cc(CC(=O)Nc4cccc(F)c4)[nH]n3)ncnc2c1 [AZD2811] + C[C@@H]1COCCN1C2=NC(=NC(=C2)C3(CC3)[S@](=N)(=O)C)C4=C5C=CNC5=NC=C4 [AZD6738] (first compound max 1 µM, 7x7, partner max 10 µM) | 0.647 | 0.775 | 0.67 | 0.785 | 0.941 | 0.832 | 0.781 | 0.891 | 0.619 | 0.802 | 0.577 | 0.474 | 0.711 | 0.876 | 0.39 | 0.744 | 0.668 | -0.0633 | -0.0642 | -0.0654 |
| CCN(CCO)CCCOc1ccc2c(Nc3cc(CC(=O)Nc4cccc(F)c4)[nH]n3)ncnc2c1 [AZD2811] + O=C(c1cc(Cc2n[nH]c(=O)c3ccccc23)ccc1F)N1CCN(C(=O)C2CC2)CC1 [Olaparib] (first compound max 1 µM, 7x7, partner max 10 µM) | 0.241 | 0.58 | 0.288 | 0.52 | 0.474 | 0.426 | 0.434 | 0.254 | 0.169 | 0.797 | 0.673 | 0.344 | 0.0609 | 0.835 | 0.152 | 0.213 | 0.271 | -0.0746 | -0.0088 | 0.007 |
| CN(CCO)CC[C@H](CSc1ccccc1)Nc1ccc(S(=O)(=O)NC(=O)c2ccc(N3CCC([C@@H](O)c4ccccc4-c4ccc(Cl)cc4)CC3)cc2)cc1S(=O)(=O)C(F)(F)F [AZD4320] + C1CN(CCC1(C(=O)N[C@@H](CCO)C2=CC=C(C=C2)Cl)N)C3=NC=NC4=C3C=CN4 [Capivasertib] (first compound max 1 µM, 7x7, partner max 3 µM) | 0.57 | 0.354 | 0.221 | 0.291 | 0.841 | 0.805 | 0.95 | 0.135 | 0.0978 | 1 | 1 | 0.0979 | 0.186 | 1 | 0.902 | 0.124 | 0.104 | -0.0491 | 0.0397 | -0.0456 |
| CN(CCO)CC[C@H](CSc1ccccc1)Nc1ccc(S(=O)(=O)NC(=O)c2ccc(N3CCC([C@@H](O)c4ccccc4-c4ccc(Cl)cc4)CC3)cc2)cc1S(=O)(=O)C(F)(F)F [AZD4320] + C=CCn1c(=O)c2cnc(Nc3ccc(N4CCN(C)CC4)cc3)nc2n1-c1cccc(C(C)(C)O)n1 [AZD1775] (first compound max 1 µM, partner max 1 µM) | 0.628 | 0.384 | 0.942 | 0.785 | 1 | 1 | 1 | 0.775 | 0.793 | 1 | 1 | 0.475 | 0.762 | 1 | 0.718 | 0.904 | 0.797 | -0.0717 | -0.0091 | -0.0047 |
